Data published in patent US20220054513A1, “COMBINATION COMPOSITIONS COMPRISING A BETA-LACTAMASE INHIBITOR” (VenatoRx Pharmaceuticals, Inc., priority 2018, published 2022).

Tested on: Acinetobacter baumannii-calcoaceticus species complex clinical isolates
Test: MIC of triple combinations (Compound 1, sulbactam, meropenem or cefepime), 141 clinical isolates
Assay type: cell-based
Details: Cmpd 1 at 4 μg/mL in combinations
Source text: For a more comprehensive assessment of the ability of test compounds to potentiate sulbactam in triple combinations with β-lactams additional MIC assays were utilized.

In the case of `C[C@@H](O)[C@H]1C(=O)N2C(C(=O)O)=C(S[C@@H]3CN[C@H](C(=O)N(C)C)C3)[C@H](C)[C@H]12` [MEM], the MIC (strain 993131) was 64 µg/mL, the MIC (strain 994180) was 2 µg/mL and the MIC (strain 995771) was 256 µg/mL. It also gave an MIC (strain 996612) of 32 µg/mL, an MIC (strain 996869) of over 256 µg/mL and an MIC (strain 997574) of 256 µg/mL. For the same molecule, the MIC (strain 998107) was 64 µg/mL, the MIC (strain 998532) was 256 µg/mL and the MIC (strain 998898) was 32 µg/mL. The MIC (strain 998907) was 16 µg/mL, the MIC (strain 999306) was 2 µg/mL and the MIC (strain 1001007) was 256 µg/mL. The MIC (strain 1001611) was 32 µg/mL, the MIC (strain 1002208) was 64 µg/mL and the MIC (strain 1002952) was over 256 µg/mL. It also gave an MIC (strain 1002960) of over 256 µg/mL, an MIC (strain 1003557) of 256 µg/mL and an MIC (strain 1003787) of over 256 µg/mL. It also gave an MIC (strain 1008508) of over 256 µg/mL, an MIC (strain 1008510) of 256 µg/mL and an MIC (strain 1010245) of 64 µg/mL. It also gave an MIC (strain 1010331) of 64 µg/mL, an MIC (strain 1011959) of 64 µg/mL and an MIC (strain 1013022) of 256 µg/mL. It also gave an MIC (strain 1013035) of 256 µg/mL, an MIC (strain 1013055) of 32 µg/mL and an MIC (strain 1013322) of 64 µg/mL. The MIC (strain 1014143) was 8 µg/mL, the MIC (strain 1014646) was 64 µg/mL and the MIC (strain 1014815) was 256 µg/mL. It also gave an MIC (strain 1014866) of 64 µg/mL, an MIC (strain 1014870) of 256 µg/mL and an MIC (strain 1014878) of 64 µg/mL. For the same molecule, the MIC (strain 1018109) was 0.25 µg/mL, the MIC (strain 1018801) was 256 µg/mL and the MIC (strain 1018802) was 256 µg/mL. The MIC (strain 1018807) was 64 µg/mL, the MIC (strain 1018851) was 256 µg/mL and the MIC (strain 1019086) was 256 µg/mL. For the same molecule, the MIC (strain 1023031) was over 256 µg/mL, the MIC (strain 1023034) was 64 µg/mL and the MIC (strain 1023074) was 32 µg/mL. For the same molecule, the MIC (strain 1023207) was 32 µg/mL, the MIC (strain 1023329) was 64 µg/mL and the MIC (strain 1024119) was 4 µg/mL. The MIC (strain 1026990) was 256 µg/mL, the MIC (strain 1026992) was 32 µg/mL and the MIC (strain 1027234) was 64 µg/mL. For the same molecule, the MIC (strain 1027590) was 256 µg/mL, the MIC (strain 1027603) was 64 µg/mL and the MIC (strain 1027748) was 32 µg/mL. For the same molecule, the MIC (strain 1028193) was over 256 µg/mL, the MIC (strain 1029770) was over 256 µg/mL and the MIC (strain 1029913) was 32 µg/mL. The MIC (strain 1030427) was 256 µg/mL, the MIC (strain 1031167) was 256 µg/mL and the MIC (strain 1031191) was 64 µg/mL. The MIC (strain 1031211) was 64 µg/mL, the MIC (strain 1031238) was 256 µg/mL and the MIC (strain 1032669) was 64 µg/mL. It also gave an MIC (strain 1032761) of 256 µg/mL, an MIC (strain 1033340) of 256 µg/mL and an MIC (strain 1033979) of 256 µg/mL. It also gave an MIC (strain 1034048) of 256 µg/mL, an MIC (strain 1034912) of 64 µg/mL and an MIC (strain 1034913) of 64 µg/mL. For the same molecule, the MIC (strain 1034916) was 64 µg/mL, the MIC (strain 1034925) was 64 µg/mL and the MIC (strain 1034962) was 64 µg/mL. For the same molecule, the MIC (strain 1035144) was 256 µg/mL, the MIC (strain 1035788) was 64 µg/mL and the MIC (strain 1035794) was 32 µg/mL. For the same molecule, the MIC (strain 1035808) was 16 µg/mL, the MIC (strain 1035825) was 64 µg/mL and the MIC (strain 1036045) was 64 µg/mL. It also gave an MIC (strain 1036068) of 64 µg/mL, an MIC (strain 1036734) of 64 µg/mL and an MIC (strain 1036768) of 8 µg/mL. For the same molecule, the MIC (strain 1036781) was over 256 µg/mL, the MIC (strain 1036859) was 64 µg/mL and the MIC (strain 1036882) was 256 µg/mL. For the same molecule, the MIC (strain 1036921) was 1 µg/mL, the MIC (strain 1037193) was over 256 µg/mL and the MIC (strain 1037211) was 2 µg/mL. For the same molecule, the MIC (strain 1037251) was 64 µg/mL, the MIC (strain 1037256) was 64 µg/mL and the MIC (strain 1037479) was 256 µg/mL. The MIC (strain 1037593) was 256 µg/mL, the MIC (strain 1037618) was 1 µg/mL and the MIC (strain 1037714) was 256 µg/mL. For the same molecule, the MIC (strain 1037731) was 0.5 µg/mL, the MIC (strain 1037732) was 256 µg/mL and the MIC (strain 1037738) was over 256 µg/mL. It also gave an MIC (strain 1037747) of 256 µg/mL, an MIC (strain 1038418) of 0.25 µg/mL and an MIC (strain 1038439) of 0.25 µg/mL. It also gave an MIC (strain 1039502) of 64 µg/mL, an MIC (strain 1039518) of 64 µg/mL and an MIC (strain 1040900) of 64 µg/mL. For the same molecule, the MIC (strain 1040901) was 64 µg/mL and the MIC (strain 1042182) was 64 µg/mL.
